Experimental data from patent US20180235993A1 (priority 2000, published 2018).

Test: Bioavailability assay in Cynomolgus monkeys
Type: in vivo, Cynomolgus monkey
Details: for Mean Norm AUC: mean of 3 monkeys
Protocol: Within 1 week prior to the study initiation, the cynomolgus monkey was surgically implanted with a chronic venous catheter and subcutaneous venous access port (VAP) to facilitate blood collection and underwent a physical examination including hematology and serum chemistry evaluations and the body weight was recorded. Each monkey (six total), received approximately 250 uCi of ^3H activity with each dose of active compound, namely β-D-2′-CH3-riboG at a dose level of 10 mg/kg at a dose concentration of 5 mg/mL, either via an intravenous bolus (3 monkeys, IV), or via oral gavage (3 monkeys, PO). Each dosing syringe was weighed before dosing to gravimetrically determine the quantity of formulation administered. Urine samples were collected via pan catch at the designated intervals (approximately 18-0 hours pre-dose, 0-4, 4-8 and 8-12 hours post-dosage) and processed. Blood samples were collected as well (pre-dose, 0.25, 0.5, 1, 2, 3, 6, 8, 12 and 24 hours post-dosage) via the chronic venous catheter and VAP or from a peripheral vessel if the chronic venous catheter procedure should not be possible. The blood and urine samples were analyzed for the maximum concentration (Cmax), time when the maximum concentration was achieved (Tmax), area under the curve (AUC), half life of the dosage concentration (T1/2), clearance (CL), steady state volume and distribution (Vss) and bioavailability (F), which are tabulated in Tables 2 and 3, and graphically illustrated in FIGS. 2 and 3, respectively.

[1] = cynomolgus monkey, blood, Cynomolgus monkeys, IV 10 mg/kg
[2] = cynomolgus monkey, blood, Cynomolgus monkeys, PO 10 mg/kg

CC1(O)[C@@H](O)[C@@H](CO)O[C@H]1n1cnc2c(=O)[nH]c(N)nc21 (stereo partly drawn) [β-D-2′-CH3-riboG]
Norm AUC (IV Monkey 1): 293.2 ng·h/mL/mg
Norm AUC (IV Monkey 2): 268.3 ng·h/mL/mg
Norm AUC (IV Monkey 3): 293.4 ng·h/mL/mg
Mean Norm AUC (IV): 284.9 ng·h/mL/mg
Norm AUC (PO Monkey 1): 26.1 ng·h/mL/mg
Norm AUC (PO Monkey 2): 29.0 ng·h/mL/mg
Norm AUC (PO Monkey 3): 61.3 ng·h/mL/mg
Mean Norm AUC (PO): 38.8 ng·h/mL/mg
F (Table 3, Cynomolgus monkeys, 10 mg/kg): 13.8%
bioavailability (cynomolgus monkey, blood, 10 mg/kg, Table 2, monkeys, PO vs IV, read-out: F (oral bioavailability)): 13.6%
AUC (cynomolgus monkey, blood, iv, 10 mg/kg, Cynomolgus monkeys, IV 10 mg/kg): 8760 ± 4210 ng·h/mL
AUC (cynomolgus monkey, blood, iv, 10 mg/kg, IV Monkey 1, dose 46.44 mg (10 mg/kg)): 13600 ng·h/mL
AUC (cynomolgus monkey, blood, iv, 10 mg/kg, IV Monkey 2, dose 24.53 mg (10 mg/kg)): 6580 ng·h/mL
AUC (cynomolgus monkey, blood, iv, 10 mg/kg, IV Monkey 3, dose 20.72 mg (10 mg/kg)): 6080 ng·h/mL
AUC (cynomolgus monkey, blood, po, 10 mg/kg, Cynomolgus monkeys, PO 10 mg/kg): 1170 ± 590 ng·h/mL
AUC (cynomolgus monkey, blood, po, 10 mg/kg, PO Monkey 1, dose 29.04 mg (10 mg/kg)): 758 ng·h/mL
AUC (cynomolgus monkey, blood, po, 10 mg/kg, PO Monkey 2, dose 30.93 mg (10 mg/kg)): 898 ng·h/mL
AUC (cynomolgus monkey, blood, po, 10 mg/kg, PO Monkey 3, dose 30.04 mg (10 mg/kg)): 1840 ng·h/mL
Cmax [1]: 6950 ± 1890 ng/mL
Tmax [1]: 0.25 h
clearance [1]: 21.3 mL/min/kg
half-life [1]: 7.9 ± 5.4 h
Vd (cynomolgus monkey, blood, Cynomolgus monkeys, IV 10 mg/kg, read-out: Vss): 2.09 ± 0.54 L/kg
Cmax [2]: 218 ± 132 ng/mL
Tmax [2]: 2 ± 1 h
half-life [2]: 10.3 ± 4.1 h
